Measurements as given in ChEMBL document CHEMBL1148604 (J Med Chem, 2006).
Values after ≈ are worked out from the molar mass of the structure shown.

tested on: Escherichia coli; assay: Inhibitory activity against Escherichia coli ANSI; format: functional

| SMILES | MIC [µM] |
| --- | --- |
| CC1=C(O)C(C)(Cc2c(Cl)cccc2Cl)SC1=O (stereo unspecified) | > 1000 |
| CCCCCCCCCCCC1(C)SC(O)=C(C)C1=O (stereo unspecified) | 25 (≈ 7.46 µg/mL) |
| CC1=C(O)C(C)(CCCc2ccccc2)SC1=O (stereo unspecified) | > 1000 |
| CC1=C(O)C(C)(CC2CCCCC2)SC1=O (stereo unspecified) | > 1000 |
| CCCCCCCCCCC(C)C1(C)SC(O)=C(C)C1=O (stereo unspecified) | 35 (≈ 10.9 µg/mL) |
| CC1=C(O)SC(C)(C(C)c2ccccc2)C1=O (stereo unspecified) | > 1000 |
| CCCCCCCC1(C)SC(O)=C(C)C1=O (stereo unspecified) | 200 (≈ 48.5 µg/mL) |
| CC1=C(O)C(C)(Cc2ccc(F)cc2)SC1=O (stereo unspecified) | > 1000 |
| CC1=C(O)C(C)(CCc2ccccc2)SC1=O (stereo unspecified) | > 1000 |
| CCCCCCCCC(C)C1(C)SC(O)=C(C)C1=O (stereo unspecified) | 35 (≈ 9.96 µg/mL) |
| CCCCC(CC)CC1(C)SC(O)=C(C)C1=O (stereo unspecified) | > 1000 |
| CC/C=C/CC1(C)SC(O)=C(C)C1=O (stereo unspecified) | > 1000 |
| CC1=C(O)SC(C)(CCC(C)C)C1=O (stereo unspecified) | > 1000 |

tested on: Mycobacterium tuberculosis; assay: Inhibitory activity against Mycobacterium tuberculosis H37Rv; format: functional

| SMILES | MIC [µM] |
| --- | --- |
| CC1=C(O)C(C)(Cc2c(Cl)cccc2Cl)SC1=O (stereo unspecified) | 500 (≈ 152 µg/mL) |
| CCCCCCCCCCCC1(C)SC(O)=C(C)C1=O (stereo unspecified) | 500 (≈ 149 µg/mL) |
| CC1=C(O)C(C)(CCCc2ccccc2)SC1=O (stereo unspecified) | 1000 (≈ 262 µg/mL) |
| CC1=C(O)C(C)(CC2CCCCC2)SC1=O (stereo unspecified) | > 1000 |
| CCCCCCCCCCC(C)C1(C)SC(O)=C(C)C1=O (stereo unspecified) | 500 (≈ 156 µg/mL) |
| CC1=C(O)SC(C)(C(C)c2ccccc2)C1=O (stereo unspecified) | > 1000 |
| CCCCCCCC1(C)SC(O)=C(C)C1=O (stereo unspecified) | 1000 (≈ 242 µg/mL) |
| CC1=C(O)C(C)(Cc2ccc(F)cc2)SC1=O (stereo unspecified) | > 1000 |
| CC1=C(O)C(C)(CCc2ccccc2)SC1=O (stereo unspecified) | 1000 (≈ 248 µg/mL) |
| CCCCCCCCC(C)C1(C)SC(O)=C(C)C1=O (stereo unspecified) | 1000 (≈ 284 µg/mL) |
| CCCCC(CC)CC1(C)SC(O)=C(C)C1=O (stereo unspecified) | 1000 (≈ 256 µg/mL) |
| CC/C=C/CC1(C)SC(O)=C(C)C1=O (stereo unspecified) | > 1000 |
| CC1=C(O)SC(C)(CCC(C)C)C1=O (stereo unspecified) | > 1000 |

molecular target: T1, 3-oxoacyl-[acyl-carrier-protein] synthase 1 (Escherichia coli K-12, UniProt P0A953); assay: Inhibitory activity against FabB from Escherichia coli ANSI
T1 sequence (P0A953 whole entry): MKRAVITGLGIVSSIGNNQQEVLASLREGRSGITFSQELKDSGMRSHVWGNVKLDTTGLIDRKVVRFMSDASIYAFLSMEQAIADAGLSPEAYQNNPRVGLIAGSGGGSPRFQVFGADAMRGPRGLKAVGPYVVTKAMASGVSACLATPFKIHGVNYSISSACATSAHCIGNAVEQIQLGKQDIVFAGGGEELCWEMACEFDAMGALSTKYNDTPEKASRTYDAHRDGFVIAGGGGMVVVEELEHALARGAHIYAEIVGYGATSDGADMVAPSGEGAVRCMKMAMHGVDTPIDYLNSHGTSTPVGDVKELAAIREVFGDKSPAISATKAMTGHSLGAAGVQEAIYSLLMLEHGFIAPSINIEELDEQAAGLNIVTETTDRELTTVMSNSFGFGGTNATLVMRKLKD

| SMILES | IC50 [µM] |
| --- | --- |
| CC1=C(O)C(C)(Cc2c(Cl)cccc2Cl)SC1=O (stereo unspecified) | > 1000 |
| CCCCCCCCCCCC1(C)SC(O)=C(C)C1=O (stereo unspecified) | > 1000 |
| CC1=C(O)C(C)(CCCc2ccccc2)SC1=O (stereo unspecified) | > 1000 |
| CC1=C(O)C(C)(CC2CCCCC2)SC1=O (stereo unspecified) | > 1000 |
| CCCCCCCCCCC(C)C1(C)SC(O)=C(C)C1=O (stereo unspecified) | > 1000 |
| CC1=C(O)SC(C)(C(C)c2ccccc2)C1=O (stereo unspecified) | > 1000 |
| CCCCCCCC1(C)SC(O)=C(C)C1=O (stereo unspecified) | > 1000 |
| CC1=C(O)C(C)(Cc2ccc(F)cc2)SC1=O (stereo unspecified) | > 1000 |
| CC1=C(O)C(C)(CCc2ccccc2)SC1=O (stereo unspecified) | > 1000 |
| CCCCCCCCC(C)C1(C)SC(O)=C(C)C1=O (stereo unspecified) | > 1000 |
| CCCCC(CC)CC1(C)SC(O)=C(C)C1=O (stereo unspecified) | > 1000 |
| CC/C=C/CC1(C)SC(O)=C(C)C1=O (stereo unspecified) | > 1000 |
| CC1=C(O)SC(C)(CCC(C)C)C1=O (stereo unspecified) | > 1000 |

molecular target: T2, 3-oxoacyl-[acyl-carrier-protein] synthase 3 (Escherichia coli, UniProt C3TDZ2); assay: Inhibitory activity against FabH from Escherichia coli ANSI
T2 sequence (C3TDZ2 whole entry): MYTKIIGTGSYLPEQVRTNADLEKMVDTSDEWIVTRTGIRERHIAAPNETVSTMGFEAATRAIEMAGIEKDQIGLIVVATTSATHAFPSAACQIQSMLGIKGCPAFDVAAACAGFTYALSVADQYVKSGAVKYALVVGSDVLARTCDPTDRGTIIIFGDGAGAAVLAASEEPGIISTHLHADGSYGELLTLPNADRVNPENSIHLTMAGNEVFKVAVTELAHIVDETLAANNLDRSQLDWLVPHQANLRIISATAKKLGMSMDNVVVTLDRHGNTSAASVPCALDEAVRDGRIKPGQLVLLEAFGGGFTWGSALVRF

| SMILES | IC50 [µM] |
| --- | --- |
| CC1=C(O)C(C)(Cc2c(Cl)cccc2Cl)SC1=O (stereo unspecified) | > 1000 |
| CCCCCCCCCCCC1(C)SC(O)=C(C)C1=O (stereo unspecified) | > 100 |
| CC1=C(O)C(C)(CCCc2ccccc2)SC1=O (stereo unspecified) | > 1000 |
| CC1=C(O)C(C)(CC2CCCCC2)SC1=O (stereo unspecified) | > 1000 |
| CCCCCCCCCCC(C)C1(C)SC(O)=C(C)C1=O (stereo unspecified) | 100 |
| CC1=C(O)SC(C)(C(C)c2ccccc2)C1=O (stereo unspecified) | > 1000 |
| CCCCCCCC1(C)SC(O)=C(C)C1=O (stereo unspecified) | > 1000 |
| CC1=C(O)C(C)(Cc2ccc(F)cc2)SC1=O (stereo unspecified) | > 1000 |
| CC1=C(O)C(C)(CCc2ccccc2)SC1=O (stereo unspecified) | > 1000 |
| CCCCCCCCC(C)C1(C)SC(O)=C(C)C1=O (stereo unspecified) | > 1000 |
| CCCCC(CC)CC1(C)SC(O)=C(C)C1=O (stereo unspecified) | > 1000 |
| CC/C=C/CC1(C)SC(O)=C(C)C1=O (stereo unspecified) | > 1000 |
| CC1=C(O)SC(C)(CCC(C)C)C1=O (stereo unspecified) | > 1000 |

molecular target: T3, Mycobacterial beta-ketoacyl-[acyl-carrier-protein] synthase III (Mycobacterium tuberculosis, UniProt P9WNG3); assay: Inhibitory activity against FabH from Mycobacterium tuberculosis H37Rv
T3 sequence (P9WNG3 whole entry): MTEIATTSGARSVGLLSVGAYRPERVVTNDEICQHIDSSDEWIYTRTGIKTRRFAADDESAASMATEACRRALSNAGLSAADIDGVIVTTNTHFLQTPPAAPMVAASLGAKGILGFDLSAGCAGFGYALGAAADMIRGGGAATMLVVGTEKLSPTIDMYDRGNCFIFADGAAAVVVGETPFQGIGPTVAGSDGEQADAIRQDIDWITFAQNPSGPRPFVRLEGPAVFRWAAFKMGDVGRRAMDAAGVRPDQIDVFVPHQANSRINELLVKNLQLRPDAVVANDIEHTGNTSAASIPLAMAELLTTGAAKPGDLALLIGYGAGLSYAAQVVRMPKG

| SMILES | IC50 [µM] |
| --- | --- |
| CC1=C(O)C(C)(Cc2c(Cl)cccc2Cl)SC1=O (stereo unspecified) | > 1000 |
| CCCCCCCCCCCC1(C)SC(O)=C(C)C1=O (stereo unspecified) | 100 |
| CC1=C(O)C(C)(CCCc2ccccc2)SC1=O (stereo unspecified) | > 1000 |
| CC1=C(O)C(C)(CC2CCCCC2)SC1=O (stereo unspecified) | > 1000 |
| CCCCCCCCCCC(C)C1(C)SC(O)=C(C)C1=O (stereo unspecified) | 65 |
| CC1=C(O)SC(C)(C(C)c2ccccc2)C1=O (stereo unspecified) | > 1000 |
| CCCCCCCC1(C)SC(O)=C(C)C1=O (stereo unspecified) | > 1000 |
| CC1=C(O)C(C)(Cc2ccc(F)cc2)SC1=O (stereo unspecified) | > 100 |
| CC1=C(O)C(C)(CCc2ccccc2)SC1=O (stereo unspecified) | > 1000 |
| CCCCCCCCC(C)C1(C)SC(O)=C(C)C1=O (stereo unspecified) | 75 |
| CCCCC(CC)CC1(C)SC(O)=C(C)C1=O (stereo unspecified) | > 1000 |
| CC/C=C/CC1(C)SC(O)=C(C)C1=O (stereo unspecified) | > 1000 |
| CC1=C(O)SC(C)(CCC(C)C)C1=O (stereo unspecified) | > 1000 |

molecular target: T4, 3-oxoacyl-[acyl-carrier-protein] synthase 2 (Mycobacterium tuberculosis, UniProt P9WQD7); assay: Inhibitory activity against KasB from Mycobacterium tuberculosis H37Rv
T4 sequence (P9WQD7 whole entry): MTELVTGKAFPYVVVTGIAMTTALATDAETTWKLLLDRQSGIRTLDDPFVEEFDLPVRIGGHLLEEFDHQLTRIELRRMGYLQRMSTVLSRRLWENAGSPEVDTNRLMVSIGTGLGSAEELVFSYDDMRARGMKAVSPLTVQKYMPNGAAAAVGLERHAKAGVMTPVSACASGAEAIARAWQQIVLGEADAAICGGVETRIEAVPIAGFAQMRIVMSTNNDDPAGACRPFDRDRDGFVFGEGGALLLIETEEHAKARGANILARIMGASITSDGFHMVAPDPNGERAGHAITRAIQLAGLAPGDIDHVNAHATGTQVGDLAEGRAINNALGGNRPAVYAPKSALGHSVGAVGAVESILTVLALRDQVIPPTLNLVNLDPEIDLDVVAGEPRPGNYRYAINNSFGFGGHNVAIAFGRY

| SMILES | IC50 [µM] |
| --- | --- |
| CC1=C(O)C(C)(Cc2c(Cl)cccc2Cl)SC1=O (stereo unspecified) | > 1000 |
| CCCCCCCCCCCC1(C)SC(O)=C(C)C1=O (stereo unspecified) | > 1000 |
| CC1=C(O)C(C)(CCCc2ccccc2)SC1=O (stereo unspecified) | > 1000 |
| CC1=C(O)C(C)(CC2CCCCC2)SC1=O (stereo unspecified) | > 1000 |
| CCCCCCCCCCC(C)C1(C)SC(O)=C(C)C1=O (stereo unspecified) | > 1000 |
| CC1=C(O)SC(C)(C(C)c2ccccc2)C1=O (stereo unspecified) | > 1000 |
| CCCCCCCC1(C)SC(O)=C(C)C1=O (stereo unspecified) | > 1000 |
| CC1=C(O)C(C)(Cc2ccc(F)cc2)SC1=O (stereo unspecified) | > 1000 |
| CC1=C(O)C(C)(CCc2ccccc2)SC1=O (stereo unspecified) | > 1000 |
| CCCCCCCCC(C)C1(C)SC(O)=C(C)C1=O (stereo unspecified) | > 1000 |
| CCCCC(CC)CC1(C)SC(O)=C(C)C1=O (stereo unspecified) | > 1000 |
| CC/C=C/CC1(C)SC(O)=C(C)C1=O (stereo unspecified) | > 1000 |
| CC1=C(O)SC(C)(CCC(C)C)C1=O (stereo unspecified) | > 1000 |

molecular target: wild-type apo-KasA (Mycobacterium tuberculosis, UniProt P9WQD9); assay: Inhibitory activity against KasA from Mycobacterium tuberculosis H37Rv
Sequence (P9WQD9 whole entry, looked up): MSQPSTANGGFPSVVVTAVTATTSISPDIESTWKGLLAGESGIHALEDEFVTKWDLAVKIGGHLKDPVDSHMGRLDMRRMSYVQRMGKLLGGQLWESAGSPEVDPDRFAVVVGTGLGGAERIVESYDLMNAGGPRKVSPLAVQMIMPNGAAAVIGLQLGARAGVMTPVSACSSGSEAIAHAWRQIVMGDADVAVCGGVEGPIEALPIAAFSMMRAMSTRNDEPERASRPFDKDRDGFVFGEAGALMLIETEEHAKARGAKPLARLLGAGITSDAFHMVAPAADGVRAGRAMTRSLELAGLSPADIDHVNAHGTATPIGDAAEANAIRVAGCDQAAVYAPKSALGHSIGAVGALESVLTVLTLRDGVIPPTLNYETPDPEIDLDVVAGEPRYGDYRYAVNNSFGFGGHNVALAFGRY

| SMILES | IC50 [µM] |
| --- | --- |
| CC1=C(O)C(C)(Cc2c(Cl)cccc2Cl)SC1=O (stereo unspecified) | > 1000 |
| CCCCCCCCCCCC1(C)SC(O)=C(C)C1=O (stereo unspecified) | > 1000 |
| CC1=C(O)C(C)(CCCc2ccccc2)SC1=O (stereo unspecified) | > 1000 |
| CC1=C(O)C(C)(CC2CCCCC2)SC1=O (stereo unspecified) | > 1000 |
| CCCCCCCCCCC(C)C1(C)SC(O)=C(C)C1=O (stereo unspecified) | > 1000 |
| CC1=C(O)SC(C)(C(C)c2ccccc2)C1=O (stereo unspecified) | > 1000 |
| CCCCCCCC1(C)SC(O)=C(C)C1=O (stereo unspecified) | > 1000 |
| CC1=C(O)C(C)(Cc2ccc(F)cc2)SC1=O (stereo unspecified) | > 1000 |
| CC1=C(O)C(C)(CCc2ccccc2)SC1=O (stereo unspecified) | > 1000 |
| CCCCCCCCC(C)C1(C)SC(O)=C(C)C1=O (stereo unspecified) | > 1000 |
| CCCCC(CC)CC1(C)SC(O)=C(C)C1=O (stereo unspecified) | > 1000 |
| CC/C=C/CC1(C)SC(O)=C(C)C1=O (stereo unspecified) | > 1000 |
| CC1=C(O)SC(C)(CCC(C)C)C1=O (stereo unspecified) | > 1000 |
